The values below come from patent US20250296937A1, “CYCLIC BISBENZYL TETRAHYDROISOQUINOLINE COMPOUND, AND PREPARATION METHOD THEREFOR AND USE THEREOF” (Shanghai Institute of Materia Medica, Chinesse Academy of …, priority 2021, published 2025).

Data set [1] deals with T1, hERG potassium channel (Homo sapiens, UniProt Q12809).
T1 construct: expressed in transfected cells
In words: hERG potassium channel whole-cell membrane clamp in CHO cells. Type of data set: cell-based. The note with it: for IC50: CHO cells stably expressing hERG, whole-cell membrane clamp. The protocol: Compounds were given for at least 1 min for each tested concentration, and at least 2 cells (n≥2) were tested per concentration.

In data set [2] the test system is inflammatory factor mRNA in Raw 264.7 cells. Put plainly: mRNA levels of inflammatory indicators in TNF-α-induced inflammation model of Raw264.7 cells (Q-PCR). Type of data set: cell-based. The note with it: 10 ng/ml TNF-α, 1 μM compound, 16 hours. As for the experimental part: (§1) In this embodiment, the effect of compounds on TNF-α-induced inflammation levels in Raw 264.7 cells was analyzed by cell viability combined with inflammatory factor expression levels; cell viability was analyzed by CCK-8 assay; and mRNA expression levels of inflammation-associated indicators were detected by real-time quantitative PCR (Q-PCR) method. Raw 264.7 cells were purchased from ATCC, CCK-8 kit was purchased from Meilunbio, item number MA0218-3, TNF-α was purchased from Merck, item no. GF314.
(§2) Experimental methods: first, 5*10^4 cells/well Raw 264.7 cells were placed in 12-well plates and incubated overnight. On the second day, 0.1% DMSO was added to the control cells, 10 ng/ml TNF-α as well as 0.1% DMSO was added to the model group, 10 ng/ml TNF-α as well as 1 μM of the compounds (oxyacanthine hydrochloride (oxy), 1, 2, tetrandrine (tet), 3, 4, 6, 58) was added to the treatment group, and the 12-well plates were sterilized and incubated in a constant temperature incubator for 16 hours. Cellular mRNA was extracted by lysis using Trizol (Yisheng, 10606ES60) and detected by real-time quantitative PCR after reverse transcription, the primers are the same as in Table 2.

The test system of data set [3] is HCoV OC43 virus. In words: Inhibition against HCoV OC43 virus replication. The note with it: for EC50: Betacoronavirus 1, OC43. Type of data set: cell-based, human coronavirus HCoV OC43.
Data set [4] deals with hNav1.5 sodium channel (Homo sapiens, UniProt Q14524). Put plainly: Nav1.5 sodium channel whole-cell membrane clamp in CHL cells.
Sequence of hNav1.5 sodium channel (Q14524 whole entry): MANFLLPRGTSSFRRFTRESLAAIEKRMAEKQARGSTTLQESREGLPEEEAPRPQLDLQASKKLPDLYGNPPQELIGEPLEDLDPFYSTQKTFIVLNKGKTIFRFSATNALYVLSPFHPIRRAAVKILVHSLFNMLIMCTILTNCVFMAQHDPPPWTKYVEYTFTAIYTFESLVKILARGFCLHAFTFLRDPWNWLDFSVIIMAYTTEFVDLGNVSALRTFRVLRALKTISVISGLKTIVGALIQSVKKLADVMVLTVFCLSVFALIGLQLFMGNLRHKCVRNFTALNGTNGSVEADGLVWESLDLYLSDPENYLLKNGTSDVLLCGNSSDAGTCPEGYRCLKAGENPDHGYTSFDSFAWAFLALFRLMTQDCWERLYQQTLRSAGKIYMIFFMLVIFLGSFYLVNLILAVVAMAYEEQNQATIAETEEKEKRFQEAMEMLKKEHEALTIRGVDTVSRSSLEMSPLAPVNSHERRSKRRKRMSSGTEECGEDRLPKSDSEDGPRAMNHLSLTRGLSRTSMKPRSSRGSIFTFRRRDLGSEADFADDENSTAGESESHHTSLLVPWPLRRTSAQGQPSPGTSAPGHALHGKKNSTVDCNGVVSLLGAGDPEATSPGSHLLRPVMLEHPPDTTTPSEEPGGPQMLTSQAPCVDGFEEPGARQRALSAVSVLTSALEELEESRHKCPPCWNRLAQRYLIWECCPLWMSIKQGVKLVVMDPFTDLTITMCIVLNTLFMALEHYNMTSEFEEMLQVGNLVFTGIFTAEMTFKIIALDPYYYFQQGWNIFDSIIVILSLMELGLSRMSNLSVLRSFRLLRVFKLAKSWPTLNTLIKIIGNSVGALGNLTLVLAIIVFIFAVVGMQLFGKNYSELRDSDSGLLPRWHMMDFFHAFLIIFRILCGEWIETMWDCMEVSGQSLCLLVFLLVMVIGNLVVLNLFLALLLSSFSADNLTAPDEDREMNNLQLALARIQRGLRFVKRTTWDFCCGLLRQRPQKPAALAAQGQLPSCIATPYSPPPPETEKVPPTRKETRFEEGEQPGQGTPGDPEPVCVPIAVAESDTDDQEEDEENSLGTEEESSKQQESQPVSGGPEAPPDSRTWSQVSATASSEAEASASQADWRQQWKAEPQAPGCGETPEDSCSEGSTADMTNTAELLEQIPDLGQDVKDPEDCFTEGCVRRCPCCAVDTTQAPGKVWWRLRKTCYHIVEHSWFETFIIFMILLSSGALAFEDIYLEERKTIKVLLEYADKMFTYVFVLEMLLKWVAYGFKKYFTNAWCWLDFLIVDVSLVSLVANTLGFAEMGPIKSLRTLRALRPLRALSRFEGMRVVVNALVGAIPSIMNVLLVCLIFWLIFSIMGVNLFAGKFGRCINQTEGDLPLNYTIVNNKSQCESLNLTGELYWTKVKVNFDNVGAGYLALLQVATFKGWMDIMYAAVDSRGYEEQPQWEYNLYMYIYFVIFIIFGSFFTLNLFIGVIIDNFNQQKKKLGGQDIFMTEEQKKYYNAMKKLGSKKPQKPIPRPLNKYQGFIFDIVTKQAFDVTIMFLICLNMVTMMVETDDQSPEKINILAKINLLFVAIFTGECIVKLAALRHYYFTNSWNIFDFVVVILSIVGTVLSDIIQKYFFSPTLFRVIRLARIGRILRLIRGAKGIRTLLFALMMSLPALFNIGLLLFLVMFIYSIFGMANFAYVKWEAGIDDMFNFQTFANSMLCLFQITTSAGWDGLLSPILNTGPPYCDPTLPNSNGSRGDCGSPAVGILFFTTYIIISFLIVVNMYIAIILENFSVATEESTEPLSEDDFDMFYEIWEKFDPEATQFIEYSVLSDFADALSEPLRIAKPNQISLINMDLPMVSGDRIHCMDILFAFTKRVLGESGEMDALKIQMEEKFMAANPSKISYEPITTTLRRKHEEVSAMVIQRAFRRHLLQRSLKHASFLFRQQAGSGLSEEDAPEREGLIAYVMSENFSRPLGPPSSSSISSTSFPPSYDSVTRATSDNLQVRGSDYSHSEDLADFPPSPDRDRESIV
Source text: Nav1.5: CHL cells stably expressing hNav1.5 sodium channel was used to record hNav1.5 sodium channel currents by whole-cell membrane clamp technique at room temperature. The glass microelectrodes were made from glass electrode blanks (BF150-86-10, Sutter) by pulling through a puller, and the tip resistance was about 2-5 MΩ after filling the electrode with internal fluid, and the glass microelectrodes were connected to Axopatch 200B (Molecular Devices) membrane clamp amplifier by inserting the glass microelectrodes into the amplifier probe. Clamp voltage and data recording were controlled and recorded by pClamp 10 software via a computer with a sampling frequency of 10 kHz and a filtering frequency of 2 kHz. After obtaining whole-cell recordings, the cells were clamped at −80 mV, given a hyperpolarizing voltage of 200 ms to −120 mV, and then depolarized to −20 mV for 20 ms to evoke a Nav1.5 current. This voltage stimulus was given every 10 s; after the hNav1.5 sodium current was determined to be stabilized (for at least 1 min), begins the dosing process. Concentrations of the sample to be tested were administered continuously starting from low test concentration, and each test concentration was given for 1 min to reach steady state of action or for a maximum of 3 min. A minimum of 3 cells (n≥3) were tested at each concentration of the sample to be tested, and a minimum of 2 cells (n≥2) were tested at each concentration of the positive control.
Extracellular fluid formulation (mM): 140 NaCl, 5 KCl, 1 CaCl2, 1.25 MgCl2, 10 HEPES and 10 Glucose, adjusting the pH to 7.4 with NaOH.
Intracellular fluid formulation (mM): 130 CsF, 10 NaCl, 10 EGTA and 10 HEPES, adjusting the pH to 7.2 with CsOH.
The nature of data set [5]: Cytotoxicity test on Vero E6 cells (CCK8). In kind it is cell-based. The note with it: African green monkey; Vero E6 cells, CCK8 kit. The protocol:
(§3) In this embodiment, the half toxicity concentration of each embodiment on Vero E6 cells was determined by CCK8 kit analysis (CC50).

The test system of data set [6] is Vero E6 cells. In words: Cytotoxicity test on Vero E6 cells (CCK8). In kind it is cell-based. The note with it: Vero E6 cells. The protocol: as §3
Data set [7] concerns A549 lung epithelial cells. Put plainly: Anti TGF-β1-induced fibrosis assay in A549 lung epithelial cells (microscopy, Western Blot). Type of data set: cell-based. The note with it: 10 ng/ml TGF-β1, 1 μM compound. As for the experimental part: Cell injury was observed by microscopic observation; cell viability was analyzed by CCK-8 assay; and protein expression levels of fibrosis-related indicators were detected by Western Blot method. A549 cells were purchased from ATCC; CCK-8 kit was purchased from Meilunbio, item number MA0218-3; TGF-β1 was purchased from MCE, item number HY-P70543; primary antibodies: Collagen was purchased from ARG21965, item no. arigobio; α-smooth muscle actin was purchased from CST, item no. mAb #19245; VIMENTN was purchased from CST, item no. mAb #5741; GAPDH was purchased from Yeasen, item no. 30201ES20.
Experimental methods: first, 8000 cells/well A549 cells were placed in 96-well plates and incubated overnight. On the second day, 0.1% DMSO was added to the control cells, 10 ng/ml TGF-β1 as well as 0.1% DMSO was added to the model group, 10 ng/ml TGF-β1 as well as 1 μM of the compounds (oxy, 1, 2, tet, 3, 4, 6, 58) was added to the treatment group, and the 96-well plates were sterilized and incubated in a constant temperature incubator for 72 hours. Finally, cell injury and growth were observed using a microscope; the viability of the cells was detected by CCK-8 kit.

The subject of data set [8] is Th1/Th17 differentiation of CD4+T cells. Put plainly: CD4+T cell in vitro differentiation assay (Th1 IFN-γ / Th17 IL-17A, flow cytometry). Also noted: inhibitory effect on Th1/Th17 differentiation at lower concentration: dose or concentration left out as unconfirmed. The note with it: 72 h; for inhibitory effect on Th1/Th17 differentiation: 10 μM, IFN-γ/IL-17A by flow cytometry.
Procedure: CD4^+T cell isolation: CD4^+T cells were isolated from the spleens of 7-8 week old C57BL/6 mice using the Mouse CD4^+T Cell Sorting Kit (Dynabeads® Untouched™ Mouse CD4 Cells Isolation Kit, Invitrogen, Catalog nos: 11415D).
In vitro differentiation of CD4^+T cells: the isolated CD4^+T cells were inoculated into 96-well plates while different concentrations of compounds were added, and then corresponding cytokines and antibodies were added: anti-CD28 (2 μg/ml), anti-CD3 (2 μg/ml), Anti-IL-4 (10 μg/ml), IL-12 (10 ng/ml), Anti-IFN-γ (10 μg/ml), anti-IL-4 (10 μg/ml), IL-6 (30 ng/ml), TGF-β1 (3 ng/ml), IL-10 (10 ng/ml), IL-23 (10 ng/ml), and TNF-α (10 ng/ml). Cells were cultured in 5% CO2 at 37° C. in a cell culture chamber for 72 h. Cells were collected, stained intracellularly, analyzed by flow cytometry, and tested for IFN-γ/IL-17A content to assess the effect of compounds on CD4^+T differentiation into Th1/Th17 in vitro.

The test system of data set [9] is Raw 264.7 cells. In words: Cell viability in TNF-α induced inflammation model of Raw 264.7 cells (CCK-8). In kind it is cell-based. The note with it: 10 ng/ml TNF-α, 1 μM compound, 16 hours. As for the experimental part:
as §1
Experimental methods: first, 8000 cells/well Raw 264.7 cells were placed in 96-well plates and incubated overnight. On the second day, 0.1% DMSO was added to the control cells, 10 ng/ml TNF-α as well as 0.1% DMSO was added to the model group, 10 ng/ml TNF-α as well as 1 μM of the compounds (oxyacanthine hydrochloride (oxy), 1, 2, tetrandrine (tet), 3, 4, 6, 58) was added to the treatment group, and the 96-well plates were sterilized and incubated in a constant temperature incubator for 16 hours. Finally, the viability of the cells was detected using the CCK-8 kit.

The subject of data set [10] is IL-6, IL-1β, CXCL9 mRNA in Raw 264.7 cells. Put plainly: mRNA levels of inflammatory indicators in LPS-induced inflammation model of Raw264.7 cells (Q-PCR). In kind it is cell-based. The note with it: 1 μg/ml LPS, 1 μM compound, 16 hours. As for the experimental part: In this example, the effect of the compounds of the present invention on the inflammation level of the LPS-induced inflammation model of Raw 264.7 cells was analyzed by cell viability in combination with inflammatory factors; cell viability was analyzed by CCK-8 assay; and mRNA expression levels of inflammation-related indicators were detected by a real-time quantitative PCR (Q-PCR) method. Raw 264.7 cells were purchased from ATCC; CCK-8 kit was purchased from Meilunbio, item no. MA0218-3; LPS was purchased from Sigma, item no. L2630.
as §2, with “1 μg/ml LPS” for “10 ng/ml TNF-α”, “transcription.” for “transcription, the primers are the same as in Table 2.”

Entries after “also recorded” stand apart in the source; their conditions may differ. A value given as a limit tells only on which side of the number the result lay.

T1 sequence (Q12809 whole entry): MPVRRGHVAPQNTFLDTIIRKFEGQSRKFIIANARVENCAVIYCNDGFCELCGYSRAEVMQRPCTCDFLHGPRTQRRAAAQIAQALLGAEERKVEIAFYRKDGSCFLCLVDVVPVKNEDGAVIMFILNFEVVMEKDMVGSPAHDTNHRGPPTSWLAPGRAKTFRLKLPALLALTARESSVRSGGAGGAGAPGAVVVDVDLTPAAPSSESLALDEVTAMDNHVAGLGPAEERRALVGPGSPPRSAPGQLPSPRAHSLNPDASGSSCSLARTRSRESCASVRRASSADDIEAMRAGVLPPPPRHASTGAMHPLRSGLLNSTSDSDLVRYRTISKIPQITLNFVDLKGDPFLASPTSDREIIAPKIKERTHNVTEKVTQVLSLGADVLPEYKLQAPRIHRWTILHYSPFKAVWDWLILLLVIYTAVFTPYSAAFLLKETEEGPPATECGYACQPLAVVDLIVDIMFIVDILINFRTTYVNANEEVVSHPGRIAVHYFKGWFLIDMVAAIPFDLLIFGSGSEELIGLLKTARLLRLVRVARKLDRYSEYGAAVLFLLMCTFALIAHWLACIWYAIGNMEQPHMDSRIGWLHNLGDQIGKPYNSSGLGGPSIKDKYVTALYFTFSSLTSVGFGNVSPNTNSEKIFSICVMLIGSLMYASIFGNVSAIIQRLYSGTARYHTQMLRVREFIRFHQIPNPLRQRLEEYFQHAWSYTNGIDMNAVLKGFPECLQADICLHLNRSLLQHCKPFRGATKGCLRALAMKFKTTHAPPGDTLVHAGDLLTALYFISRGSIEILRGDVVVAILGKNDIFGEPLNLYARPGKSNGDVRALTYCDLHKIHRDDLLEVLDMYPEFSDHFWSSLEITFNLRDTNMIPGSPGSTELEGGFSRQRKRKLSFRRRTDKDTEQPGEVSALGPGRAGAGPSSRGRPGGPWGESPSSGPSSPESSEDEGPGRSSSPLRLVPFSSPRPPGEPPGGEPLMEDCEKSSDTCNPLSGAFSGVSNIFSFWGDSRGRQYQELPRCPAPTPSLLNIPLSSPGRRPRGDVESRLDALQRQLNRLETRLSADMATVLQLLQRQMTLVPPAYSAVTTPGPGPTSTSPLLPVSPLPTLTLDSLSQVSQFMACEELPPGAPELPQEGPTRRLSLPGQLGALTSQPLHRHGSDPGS

For `CCCCNC(=O)Oc1ccc2cc1Oc1ccc(cc1)C[C@H]1c3c(cc(OC)c(OC)c3Oc3cc4c(cc3OC)CCN(C)[C@@H]4C2)CCN1C` [Compound 2], in [1], the “activity against hERG ion channels” value is listed as “weakly active” and it took 19 µM to reach half-maximal inhibition (IC50). Moreover, the “inhibition of inflammatory factors (mRNA) in TNF-α-induced inflammation model” value in data set [2] is on record as “significantly inhibited inflammatory factors; also recorded: significant inhibition”. In addition, in [3], the “inhibition against human coronavirus HCoV OC43” value was “strong inhibition” and the EC50 stood at 1.2 µM. In [4], this compound showed an IC50 of over 10 µM. Further, the IC50 in data set [5] lay within 30 to 50 µM. Also, in [6], the “cytotoxicity on Vero E6 cells compared with oxyacanthine hydrochloride” value is given as “weaker cytotoxicity than oxyacanthine hydrochloride”. Also, the “alleviation of TGF-β1-induced fibrosis in A549 lung epithelial cells (Collagen1, α-SMA by WB)” value in data set [7] was “alleviated; also recorded: partially alleviate fibrosis”. Also, in data set [8], the “inhibitory effect on Th1/Th17 differentiation” value is reported as “strong inhibitory effect” and the “inhibitory effect on Th1/Th17 differentiation at lower concentration” value was “strong inhibitory effect”. In data set [9], the “cell viability in TNF-α-induced inflammation model” value is on record as “did not affect cell viability”. Besides, the “inhibition of inflammatory factors (IL-6, IL-1β, CXCL9 mRNA) in LPS-induced inflammation model” value in data set [10] is recorded as “significantly inhibited inflammatory factors; also recorded: significant inhibition”.
In the case of `COc1cc2c3cc1Oc1c(OC)c(OC)cc4c1[C@H](Cc1ccc(cc1)Oc1cc(ccc1C(N)=O)C[C@H]3N(C)CC2)N(C)CC4` [Compound 4], the “activity against hERG ion channels” value in data set [1] was “weakly active”. Moreover, the IC50 in data set [1] (human, CHO cells stably expressing hERG potassium channels, pH 7.4) was 20 µM; in data set [4] it was over 50 µM; in data set [5] it was over 50 µM. Besides, the “inhibition of inflammatory factors (mRNA) in TNF-α-induced inflammation model” value in data set [2] is recorded as “significantly inhibited inflammatory factors; also recorded: significant inhibition”. In addition, the “inhibition against human coronavirus HCoV OC43” value in data set [3] is “strong inhibition”. The EC50 in [3] stood at 5 µM. For the same compound, the “activity against Nav1.5 channels” value in data set [4] was “weakly active”. In data set [6], the “cytotoxicity on Vero E6 cells compared with oxyacanthine hydrochloride” value is given as “weaker cytotoxicity than oxyacanthine hydrochloride”. The “alleviation of TGF-β1-induced fibrosis in A549 lung epithelial cells (Collagen1, α-SMA by WB)” value in [7] is “alleviated; also recorded: partially alleviate fibrosis”. Moreover, in [8], the “inhibitory effect on Th1/Th17 differentiation” value is “strong inhibitory effect”. In data set [9], the “cell viability in TNF-α-induced inflammation model” value was “did not affect cell viability”. For the same compound, the “inhibition of inflammatory factors (IL-6, IL-1β, CXCL9 mRNA) in LPS-induced inflammation model” value in [10] was “significantly inhibited inflammatory factors; also recorded: significant inhibition”.
